Like-named read-outs stand apart in the source and are kept apart here.
Assays:
[1] = tested on: Salmonella typhimurium TA98, TA102; test: Ames test for genotoxicity; conditions: 8 conc., 1.5-5000 μg/plate; +/− S9 both; strains TA98, TA102
Procedure: The Ames test determines the ability of a compound to reverse an introduced mutation in two strains of Salmonella typhimurium (selected from TA98, TA100, TA15345, TA1537, and TA102). (See for example Maron, D. M. and Ames, B. N., Mutat. Res., 1983, 113, 173-215.) Compounds were tested at eight dose levels 1.5, 5, 15, 50, 150, 500, 1500, and 5000 μg/plate in both the presence and absence of S-9 microsomal fraction in two bacterial strains (TA98, TA102). After incubation at 37° the number of revertant colonies was compared with the number of spontaneous revertants on negative (vehicle) plates. Positive control plates containing a known mutagen active in each of the strains in the presence of S-9 extract (2-aminoanthracene at 1-5 ug/plate) were also run.

CD1 mice = test: Forced swim model (depression result); format: in vivo; conditions: i.p.
Procedure: CD1 mice were adminstered a compounds shown in Table 11, desipramine, Ro 25-6981 or a control vehicle and subjected to a forced swim test. All compounds were administered as intraperitoneal injections. Animals were placed into a beaker (15 cm diameter) of water held at 25° C. with a depth of 15 cm 30 min after compound administration. Behavior was videotaped for 6 minutes from the side of the beaker and scored subsequently for struggling behavior. Results were analyzed by one-way ANOVA and post-hoc Bonferroni tests. Total immobility time refers to the time that the animal spends floating or engaged in minimal activity to keep afloat for at least 3 seconds. Subtle movements of feet, tail or head required to maintain the eyes, ears, and nose above the surface of the water were excluded as immobility. The video-tapes were scored by investigators unfamiliar with the treatments of the mice.
For the data in FIG. 1, test compounds were tested at a dose of 10 mg/ kg. Desipramine was tested at a dose of 20 mg/kg. Ro 25-6981 was tested at a dose of 5 mg/kg. Number of CD1 mice tested per groups was 8-10. ANOVA: F(11,98)=3.638, p<0.01. *=p<0.05 compared to vehicle. +=p<0.05 compared to desipramine.
For the data in FIG. 2, compounds NP10075 and NP10076 were tested at doses of 5 mg/kg, 7.5 mg/kg and 10 mg/kg; desipramine was tested at a dose of 20 mg/kg; and Ro 25-6981 was tested at a dose of 5 mg/kg. Number of CD1 mice tested per group was 8-10. *=p<0.05, **=p<0.01 ANOVA, post-hoc Bonferroni from control.

[2] = Plasma and brain exposure assessment; format: in vivo, Mice; conditions: mouse, ip; for concentration at 30 min: calculated from the brain:plasma ratio determined by LC-MS/MS
Procedure: Mice were administered a dose of test compound (10 mg/kg by i.p.) and blood and brain tissue samples collected at the indicated times post drug administration (n=3-5). Blood samples were collected in K-EDTA tubes and centrifuged for ten minutes immediately after collection, and the plasma was stored at −80° C. until analysis. Brains were immediately removed from the skull and the meninges and cerebellum removed, rinsed with ice-cold PBS, weighed and then homogenized at 4° C. in 2-3 volumes of 50 mM potassium phosphate buffer (pH 7.4) and stored at −80° C. until analysis. Plasma and brain homogenates were extracted by the addition of 5 volumes of cold acetonitrile, mixed well by vortexing and centrifuged at 4000 rpm for 15 minutes. The supernatant fractions were analyzed by LC-MS/MS operating in multiple reaction monitoring mode (MRM) and analyzed for the parent compound to determine the plasma or brain concentration. Internal standards were added to calibrate each sample. An eight point standard curve was prepared similarly in naïve plasma and brain for each compound of interest. Based on occupancy studies of other NR2B antagonists in rodents (CP-101,606, Ro25-6981, and Merck20j), plus plasma levels achieved in Preskorn et al., brain exposures for the test compounds were consistent with “anticipated levels” required for efficacy.

[3] = target: NMDA receptor (NR1 + NR2 subunits) (Rattus norvegicus, UniProt P35439+Q00960); test: Two electrode voltage clamp recording from Xenopus laevis oocytes (pH dependence of NMDA antagonism); format: cell-based; conditions: Table 27; pH not stated; read-out: Rat IC50
Chain of NMDA receptor (NR1 + NR2 subunits) (Q00960 27-1482, other chains not shown): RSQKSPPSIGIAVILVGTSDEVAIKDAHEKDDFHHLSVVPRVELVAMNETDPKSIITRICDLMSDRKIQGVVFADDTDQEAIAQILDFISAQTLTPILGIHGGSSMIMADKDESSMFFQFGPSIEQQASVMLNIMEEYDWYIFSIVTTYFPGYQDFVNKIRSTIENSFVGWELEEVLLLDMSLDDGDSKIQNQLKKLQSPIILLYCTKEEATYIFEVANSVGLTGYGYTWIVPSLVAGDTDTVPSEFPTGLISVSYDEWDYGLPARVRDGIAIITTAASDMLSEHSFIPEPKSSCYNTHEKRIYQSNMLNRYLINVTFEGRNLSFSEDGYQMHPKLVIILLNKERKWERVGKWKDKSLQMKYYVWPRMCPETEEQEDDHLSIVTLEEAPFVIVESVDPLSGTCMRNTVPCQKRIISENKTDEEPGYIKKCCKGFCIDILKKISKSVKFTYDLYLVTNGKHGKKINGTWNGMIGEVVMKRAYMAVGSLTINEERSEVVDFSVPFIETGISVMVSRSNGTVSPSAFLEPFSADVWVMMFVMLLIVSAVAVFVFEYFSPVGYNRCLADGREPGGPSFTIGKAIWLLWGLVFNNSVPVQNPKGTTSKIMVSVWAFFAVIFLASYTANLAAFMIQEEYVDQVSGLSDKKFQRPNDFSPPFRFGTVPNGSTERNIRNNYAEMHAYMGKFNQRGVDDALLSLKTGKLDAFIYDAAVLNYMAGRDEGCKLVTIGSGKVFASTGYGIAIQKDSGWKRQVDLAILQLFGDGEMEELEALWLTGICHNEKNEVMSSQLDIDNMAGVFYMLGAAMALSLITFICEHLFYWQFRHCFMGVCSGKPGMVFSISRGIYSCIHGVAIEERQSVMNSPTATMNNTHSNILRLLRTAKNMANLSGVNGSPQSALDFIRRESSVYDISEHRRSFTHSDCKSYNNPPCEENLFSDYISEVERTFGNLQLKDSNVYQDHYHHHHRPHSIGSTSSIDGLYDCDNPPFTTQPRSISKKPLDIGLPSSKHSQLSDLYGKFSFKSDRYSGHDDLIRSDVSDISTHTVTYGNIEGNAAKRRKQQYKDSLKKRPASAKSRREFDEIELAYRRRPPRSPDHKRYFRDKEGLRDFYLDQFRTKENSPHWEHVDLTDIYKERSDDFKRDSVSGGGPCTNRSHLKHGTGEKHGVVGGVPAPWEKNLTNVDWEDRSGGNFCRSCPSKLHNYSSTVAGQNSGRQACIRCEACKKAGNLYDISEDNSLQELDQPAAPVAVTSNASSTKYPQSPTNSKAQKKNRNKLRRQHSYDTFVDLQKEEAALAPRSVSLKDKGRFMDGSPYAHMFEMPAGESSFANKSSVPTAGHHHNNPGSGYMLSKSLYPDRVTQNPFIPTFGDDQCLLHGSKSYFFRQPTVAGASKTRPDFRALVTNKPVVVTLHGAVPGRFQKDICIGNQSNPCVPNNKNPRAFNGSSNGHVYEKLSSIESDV
In short: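 Oocytes expressing rat NR1/NR2 were held at −40 mV at 23 °C, 2–7 days after injection, in Ba²⁺ saline with pH adjusted and 10 µM EDTA. Compounds at 4–8 concentrations were co-applied with 50 µM glutamate and 30 µM glycine. Percent of the initial response was leak-corrected, pooled over 3–6 frogs and fitted with a Hill equation (minimum ≥0) to give IC50.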

mice = test: Open field activity test; format: in vivo; conditions: 10 mg/kg, intraperitoneal
Procedure: Spontaneous activity was evaluated in an automated Omnitech Digiscan apparatus (AccuScan Instruments, Columbus, Ohio). Animals were given vehicle, imipramine, or a dose of a test compound. All compounds were administered as intraperitoneal injections. Activity was summated at 5 minute intervals over the 90 min period of testing. At 60 minutes, the mice were injected with 10 mg/kg NP10075, 10 mg/kg NP10076 or a vehicle. Locomotion was measured in terms of the total distance traveled (horizontal activity). Results were analyzed by one-way ANOVA and post-hoc Bonferroni tests.

[4] = tested on: MDR1-MDCK cell monolayers that express the multidrug transporter P-gp; test: In vitro cell permeability assay to predict brain penetration potential; format: in vitro ADME; design: key: High: when Papp A−B≧3.0×10−6 cm/s, and efflux<3.0; Moderate: when Papp A−B≧3.0×10−6 cm/s, and 10>efflux≧3.0; Low: when either Papp A−B≧3.0×10−6 cm/s, and efflux≧10, or when Papp A−B<3.0×10−6 cm/s; conditions: 5 μM, pH 7.4, 2 hr, from Papp A-B and efflux ratio
Procedure: Penetration Classification (Table 24) using the in vitro cell permeability assay to predict bran penetration potential: Transwell® wells containing MDR1-MDCK cell monolayers that express the multidrug transporter P-gp were used for measuring the percent recovery of compound after dosing both sides of a cell monolayer with the test article. Monolayers were grown for 7-11 days at which time 5 μM of the test article was made by dilution from DMSO stocks into a Hank's balanced salt solution (pH 7.4), final DMSO not greater than 1%, and added to: a) the apical side for A-B permeability (apical to basal) assessment, or separately b) the basal side for the B-A permeability (basal to apical) assessment, all at pH 7.4. After a 2 hr incubation (37° C.) both the apical and the basal compartments were sampled and the amount of test article present determined by generic LC-MS/MS methods against a ≧4 point calibration curve. Experiments were done in duplicate. Apparent permeability (Papp units are reported×10−6 cm/s) are determined for the A−B and the B−A directions as well as the Efflux ratio (PappB−A/Papp A−B). The blood-brain barrier penetration potential is classified as follows: “High” when Papp A−B≧3.0×10−6 cm/s, and efflux<3.0; “Moderate” when Papp A−B≧3.0×10−6 cm/s, and 10>efflux≧3.0; and “Low” when either Papp A−B≧3.0×10−6 cm/s, and efflux≧10, or when Papp A−B<3.0×10−6 cm/s.

[5] = Brain exposure (brain:plasma ratio, Table 24); format: in vivo, Rats; conditions: for Kp at 15 min: 15 m
Procedure: Animals were fasted overnight prior to dose administration and food returned to the animals two hours after dosing. Following IV dosing, blood samples (ca 200 μL) were collected into separate tubes containing anticoagulant (K-EDTA) via the orbital plexus at various times post administration. Plasma samples were prepared immediately after collection by centrifugation for ten minutes using a tabletop centrifuge, and stored at −80° C. Brain tissue was weighed, homogenized on ice in 50 mM phosphate buffer (2 ml per brain) and the homogenate stored at −80° C. Plasma and brain homogenate samples were extracted by the addition of 5 volumes of cold acetonitrile, mixed well by vortexing and centrifuged at 4000 rpm for 15 minutes. The supernatant fractions were analyzed by LC-MS/MS operating in multiple reaction monitoring mode (MRM). The amount of parent compound in each sample was calculated by comparing the response of the analyte in the sample to that of a standard curve.

[6] = plasma (free, unbound), mice 10 mg/kg i.p., 30 minute, based on % free fraction measured in protein binding study, read-out: Free Plasma
[7] = plasma (free, unbound), mice 10 mg/kg i.p., 30 minute, based on % free fraction, read-out: Free Plasma
[8] = plasma, mice dosed 10 mg/kg, i.p., 30 minute time point, LC-MS/MS, read-out: Plasma

With CCCCN(CCc1ccc(Cl)c(Cl)c1)CC(O)COc1ccc(NS(C)(=O)=O)cc1 (stereo not drawn) [Compound 93-31] the “Genotoxicity (Ames) Result” value [1] was “No positive”.

For O=c1[nH]c2ccc(OC[C@@H](O)CN3CCN(c4ccc(Cl)cc4)CC3)cc2o1 [NP10056], the “Genotoxicity (Ames) Result” value [1] was “No positive”.

With O=C(COc1ccc2[nH]c(=O)oc2c1)N1CCN(c2ccc(Cl)c(Cl)c2)CC1 [NP10068] the “Depression Result” value (CD1 mice) was “active”, the concentration at 30 min ([2]; mice 10 mg/kg i.p.) was 48 nM and the concentration at 30 minute [2, 6] was 61 ng/mL. It also gave a concentration at 30 minute [2, 7] of 145 nM, a concentration at 30 minute [2, 8] of 679 ng/mL and an IC50 [3] of 60 nM.

For NC(=O)Nc1ccc(OC[C@@H](O)CN2CCN(c3ccc(Cl)cc3)CC2)cc1 [NP10075], the “Depression Result” value (CD1 mice) was “active”, the concentration at 30 min ([2]; mice 10 mg/kg i.p.) was 130 nM and the concentration at 30 minute [2, 6] was 220 ng/mL. It also gave a concentration at 30 minute [2, 7] of 542 nM, a concentration at 30 minute [2, 8] of 3140 ng/mL and an IC50 [3] of 108 nM. For the same compound, the “mouse open field activity (total distance traveled)” value (mice) was “Neither NP10075 or NP10076 altered mouse open field activity” and the “Genotoxicity (Ames) Result” value [1] was “No positive”.

For O=C1N(C[C@H](O)COc2ccc(O)cc2)CCN1c1ccc(Cl)cc1 [NP10076], the “Depression Result” value (CD1 mice) was “active”, the concentration at 30 min ([2]; mice 10 mg/kg i.p.) was 64 nM and the concentration at 30 minute [2, 6] was 34 ng/mL. For the same compound, the concentration at 30 minute [2, 7] was 94 nM, the concentration at 30 minute [2, 8] was 377 ng/mL and the IC50 [3] was 72 nM.

For O=c1[nH]c2ccc(OC[C@@H](O)CN3CCN(c4ccc(Cl)cc4)CC3)cc2[nH]1 [NP10122], the “Genotoxicity (Ames) Result” value [1] was “No positive”.

For Nc1ccc(OC[C@@H](O)CN2CCN(c3ccc(Cl)c(Cl)c3)C2=O)cc1 [NP10226], the “Genotoxicity (Ames) Result” value [1] was “No positive”.

For Nc1ccc(OC[C@@H](O)CN2CCN(c3ccc(Cl)cc3)CC2)cc1 [NP10231], the “Genotoxicity (Ames) Result” value [1] was “No positive”.

In the case of NC(=O)Nc1ccc(OC[C@@H](O)CN2CCN(c3ccc(Cl)cc3)C2=O)cc1 [drawing 805], the “BBB Pene Classification” value [4] is reported as “Low” and the “RATIO: Brain:plasma (Direct)” value ([5]; 1 MPK i.v.) is reported as “Below Detection limit (~0)”.

For O=C(COc1ccc2[nH]c(=O)oc2c1)N1CCN(c2ccc(Cl)c(Cl)c2)CC1 [drawing 806], the “BBB Pene Classification” value [4] was “Moderate (when Papp A−B≧3.0×10−6 cm/s, and 10>efflux≧3.0)”, the Kp at 15 min ([5]; rat, brain and plasma, ip, 10 mg/kg, 10 MPK i.p., read-out: RATIO: Brain:plasma (Direct)) was 0.25 and the Kp at 30 min ([5]; rat, brain and plasma, ip, 10 mg/kg, 10 MPK i.p., 30 m, read-out: RATIO: Brain:plasma (Direct)) was 0.49. The Kp at 1 h ([5]; rat, brain and plasma, ip, 10 mg/kg, 10 MPK i.p., 1 hr, read-out: RATIO: Brain:plasma (Direct)) was 0.3, the Kp at 2 h ([5]; rat, brain and plasma, ip, 10 mg/kg, 10 MPK i.p., 2 hr, read-out: RATIO: Brain:plasma (Direct)) was 0.36 and the Kp ([5]; rat, brain and plasma, ip, 10 mg/kg, 10 MPK i.p., avg, read-out: RATIO: Brain:plasma (Direct)) was 0.33.

For O=C(COc1ccc2[nH]c(=O)[nH]c2c1)N1CCN(c2ccc(Cl)c(Cl)c2)CC1 [drawing 807], the “BBB Pene Classification” value [4] was “Moderate (when Papp A−B≧3.0×10−6 cm/s, and 10>efflux≧3.0)”, the Kp at 15 min ([5]; rat, brain and plasma, iv, 1 mg/kg i.v., read-out: RATIO: Brain:plasma (Direct)) was 0.04 and the Kp at 30 min ([5]; rat, brain and plasma, iv, 1 mg/kg i.v., 30 m, read-out: RATIO: Brain:plasma (Direct)) was 0.06. It also gave a Kp at 1 h ([5]; rat, brain and plasma, iv, 1 mg/kg i.v., 1 hr, read-out: RATIO: Brain:plasma (Direct)) of 0.07, a Kp at 3 h ([5]; rat, brain and plasma, iv, 1 mg/kg i.v., 3 hr, read-out: RATIO: Brain:plasma (Direct)) of 0.1 and a Kp ([5]; rat, brain and plasma, iv, 1 mg/kg i.v., avg., read-out: RATIO: Brain:plasma (Direct)) of 0.07.

In the case of Oc1ccc(OC[C@@H](O)CSc2nc3cc(Cl)c(Cl)cc3[nH]2)cc1 [drawing 808], the “BBB Pene Classification” value [4] is reported as “High (when Papp A−B≧3.0×10−6 cm/s, and efflux<3.0)”, the “RATIO: Brain:plasma (Direct)” value ([5]; 3 MPK i.v., 2 hr) is reported as “BLQ” and the Kp at 30 min ([5]; rat, brain and plasma, iv, 3 mg/kg, 3 MPK i.v., 30 m, read-out: RATIO: Brain:plasma (Direct)) is reported as 0.15. It also gave a Kp at 1 h ([5]; rat, brain and plasma, iv, 3 mg/kg, 3 MPK i.v., 1 hr, read-out: RATIO: Brain:plasma (Direct)) of 0.35 and a Kp ([5]; rat, brain and plasma, iv, 3 mg/kg, 3 MPK i.v., avg, read-out: RATIO: Brain:plasma (Direct)) of 0.25.

With O=c1[nH]c2ccc(OC[C@@H](O)CSc3nc4cc(Cl)c(Cl)cc4[nH]3)cc2o1 [drawing 809] the “BBB Pene Classification” value [4] was “Moderate (when Papp A−B≧3.0×10−6 cm/s, and 10>efflux≧3.0)”, the “RATIO: Brain:plasma (Direct)” value ([5]; 3 MPK i.v., 30 m) was “BLQ (avg); BLQ (30 m), BLQ (1 hr),” and the “RATIO: Brain:plasma (Direct)” value ([5]; 3 MPK i.v., 1 hr) was “BLQ (avg); BLQ (30 m), BLQ (1 hr),”. The “RATIO: Brain:plasma (Direct)” value ([5]; 3 MPK i.v., avg) was “BLQ (avg); BLQ (30 m), BLQ (1 hr),”.
